Measured values taken from US20250129091A1, “THIENOPYRROLOTRIAZINE COMPOUNDS, THEIR PREPARATION AND THEIR THERAPEUTIC USE” (Sanofi, priority 2022, published 2025).
Where two headings read alike, the source gives them in different places.

Legend:
TNF-α secretion = TNF-α secretion assay (PMA-differentiated THP-1 cells, LPS-triggered, MSD readout); type: cell-based; conditions: Homo sapiens, LPS 24 h; for inhibition at 3 µM: compound at 3 μM; for inhibition at 10 µM: compound at 10 μM
Experimental: Monocytic THP-1 cells (DSMZ) were maintained in RPMI media (RPMI 1640 Medium (1×) +10% FBS, biowest S181H). Cells were then differentiated at 160,000 cells per well in 96-well flat bottom cell culture plates with RPMI+0.1% Bovine Serum Albumin solution and 0.5 μM phorbol 12-myristate 13-acetate (PMA; Sigma, ref:P8139) overnight at 37° C. Experimental compounds were prepared and added as described above. TNF-α secretion was triggered by the addition of 0.5 μg/mL LPS (invivoGen, tlrl-3pelps) and cells were incubated for 24 h. 2.5 μL supernatant was removed, and TNF-α levels were monitored using an MSD assay (mesoscale, K15049) according to manufacturers' instructions.
(§1) IC50 values were calculated from the plot of percentage of inhibition versus the inhibitor concentration by a logistics fit according to: y=A2+(A1−A2)/(1+(x/IC50)^p) where y is the %-inhibition at the inhibitor concentration, x. A1 is the lowest inhibition value, i.e., 0%, and A2 the maximum inhibition value, i.e., 100%. The exponent, p, is the Hill coefficient. The curve fitting was conducted with an internally developed software.

NLRP3 inflammasome = assay: IL-1β secretion assay (LPS-primed, nigericin-activated THP-1 cells, MSD readout); type: cell-based; conditions: Homo sapiens, read-out: IL1b IC50
Experimental: Monocytic THP-1 cells (DSMZ) were maintained in RPMI media (RPMI 1640 Medium (1×) +10% FBS, Eurobio CVFSVFOO—OU). Cells were then plated at 16,000 cells per well in 96-well round bottom cell culture plates (TPP, ref 92097) and maintained with RPMI and 0.1% Bovine Serum Albumin solution. Activation of the NLRP3 inflammasome requires both an NF-kB-dependent priming step and the addition of a NLRP3 activator. The priming step was induced by LPS (10 ng/mL, Sigma, ref:L4391) for 3 h at 37° C., then compound, in a 1:3.10 serial dilution series in DMSO 1:100, and the activator nigericin (Sigma Aldrich, ref: SML1779) 10 μM (final concentration) were added to the cells and co-incubated for 2 h. 50 μL supernatant was removed, and IL-1β levels were monitored using an MSD assay (Electro Chemical Luminescence Immunoassay (ECLI) according to manufacturers' instructions.
as §1

Row | IC50 (NLRP3 inflammasome; THP-1, LPS-primed) | Structure (SMILES) | inhibition at 3 µM (TNF-α secretion) | inhibition at 10 µM (TNF-α secretion) | IC50 (NLRP3 inflammasome; LPS-primed)
1 | 58.9 nM | CC(C)c1nn(CC(=O)N[C@@H]2CCCN(C(C)C)C2)c(=O)c2cc3ccsc3n12 [Example 48, 2-(12-isopropyl-9-oxo-3-thia-1,10,11-triazatricyclo[6.4.0.02,6]dodeca-2(6),4,7,11-tetraen-10-yl)-N-[(3R)-1-isopropyl-3-piperidyl]acetamide] | – | – | –
2 | 322 nM | CCOC(=O)C(C)(C)N1CCCC(NC(=O)Cn2nc(C(C)C)n3c(cc4ccsc43)c2=O)C1 (stereo not drawn) [Example 80, ethyl 2-methyl-2-[3-[[2-(8-isopropyl-5-oxothieno[3′,2′:4,5]pyrrolo[1,2-d][1,2,4]triazin-6(5H)-yl)acetyl]amino]piperidin-1-yl]propanoate] | – | – | –
3 | 70 nM | CC(C)c1nn(CC(=O)N[C@@H]2CCCN(C3(C)CCCC3)C2)c(=O)c2cc3ccsc3n12 [Example 71, 2-(12-isopropyl-9-oxo-3-thia-1,10,11-triazatricyclo[6.4.0.02,6]dodeca-2(6),4,7,11-tetraen-10-yl)-N-[(3R)-1-(1-methylcyclopentyl)-3-piperidyl]acetamide] | – | – | –
4 | 157 nM | CC(C)c1nn(CC(=O)N[C@@H]2CCCN(CC#N)C2)c(=O)c2cc3ccsc3n12 [Example 75, N-[(3R)-1-(cyanomethyl)piperidin-3-yl]-2-(8-isopropyl-5-oxothieno[3′,2′:4,5]pyrrolo[1,2-d][1,2,4]triazin-6(5H)-yl)acetamide] | – | – | –
5 | 3430 nM | CCc1nn(CC(=O)N[C@@H]2CCCN(C[C@H](C)O)C2)c(=O)c2cc3ccsc3n12 [Example 69, 2-(12-ethyl-9-oxo-3-thia-1,10,11-triazatricyclo[6.4.0.02,6]dodeca-2(6),4,7,11-tetraen-10-yl)-N-[(3R)-1-[(2S)-2-hydroxypropyl]-3-piperidyl]acetamide] | – | – | –
6 | 1470 nM | CC(C)c1nn(CC(=O)Nc2cccnc2)c(=O)c2cc3ccsc3n12 [Example 56, 2-(12-isopropyl-9-oxo-3-thia-1,10,11-triazatricyclo[6.4.0.02,6]dodeca-2(6),4,7,11-tetraen-10-yl)-N-(3-pyridyl)acetamide] | – | – | –
7 | 2070 nM | CC(C)c1nn(CC(=O)Nc2ccncn2)c(=O)c2cc3ccsc3n12 [Example 66, 2-(12-isopropyl-9-oxo-3-thia-1,10,11-triazatricyclo[6.4.0.02,6]dodeca-2(6),4,7,11-tetraen-10-yl)-N-pyrimidin-4-yl-acetamide] | – | – | –
8 | 4500 nM | CC(C)c1nn(CC(=O)NC2C[C@@H]3C[C@H]2N(C)C3)c(=O)c2cc3ccsc3n12 (stereo in doubt) [Example 82, N-[(1R,4R)-2-methyl-2-azabicyclo[2.2.1]heptan-6-yl]-2-(8-isopropyl-5-oxothieno [3′,2′:4,5]pyrrolo[1,2-d][1,2,4]triazin-6(5H)-yl)acetamide] | – | – | –
9 | 3230 nM | CC(C)c1nn(CC(=O)NCC2CC(=O)N(C(C)(C)C)C2)c(=O)c2cc3ccsc3n12 (stereo not drawn) [Example 55, N-[(1-tert-butyl-5-oxo-pyrrolidin-3-yl)methyl]-2-(12-isopropyl-9-oxo-3-thia-1,10,11-triazatricyclo[6.4.0.02,6]dodeca-2(6),4,7,11-tetraen-10-yl)acetamide] | – | – | –

Second part, the compound before the results:

Row | Structure (SMILES) | IC50 (NLRP3 inflammasome; THP-1, LPS-primed) | inhibition at 3 µM (TNF-α secretion) | inhibition at 10 µM (TNF-α secretion) | IC50 (NLRP3 inflammasome; LPS-primed)
10 | CC(C)c1nn(CC(=O)N[C@@H]2CCCN(C[C@H](C)O)C2)c(=O)c2cc3ccsc3n12 [Example 3, N—((R)-1-((S)-2-hydroxypropyl)piperidin-3-yl)-2-(8-isopropyl-5-oxothieno[3′,2′:4,5]pyrrolo[1,2-d][1,2,4]triazin-6(5H)-yl)acetamide] | 335 nM | 3.1% | -8.2% | –
11 | CC(C)c1nn(CC(=O)NC2CN(C)CC(F)(F)C2)c(=O)c2cc3ccsc3n12 (stereo not drawn) [Example 35, N-(5,5-difluoro-1-methylpiperidin-3-yl)-2-(8-isopropyl-5-oxothieno[3′,2′:4,5]pyrrolo[1,2-d][1,2,4]triazin-6(5H)-yl)acetamide] | – | 23% | 5.7% | –
12 | C[C@H](O)CN1CCC[C@@H](NC(=O)Cn2nc(C3CC3)n3c(cc4ccsc43)c2=O)C1 [Example 22, 2-(8-cyclopropyl-5-oxothieno[3′,2′:4,5]pyrrolo[1,2-d][1,2,4]triazin-6(5H)-yl)-N—((R)-1-((S)-2-hydroxypropyl)piperidin-3-yl)acetamide] | 400 nM | -2.9% | 14.5% | –
13 | CC(C)c1nn(CC(=O)N[C@@H]2CCCN(C)C2)c(=O)c2cc3ccsc3n12 [Example 1, (R)-2-(8-isopropyl-5-oxothieno[3′,2′:4,5]pyrrolo[1,2-d][1,2,4]triazin-6(5H)-yl)-N-(1-methylpiperidin-3-yl)acetamide] | 661 nM | -5.1% | -17.7% | –
14 | O=C(Cn1nc(C2CC2)n2c(cc3cc(Cl)sc32)c1=O)N[C@@H]1CCCN(C2CC2)C1 [Example 13, (R)-2-(2-chloro-8-cyclopropyl-5-oxothieno[3′,2′:4,5]pyrrolo[1,2-d][1,2,4]triazin-6(5H)-yl)-N-(1-cyclopropylpiperidin-3-yl)acetamide] | 168 nM | 5.2% | 22.2% | –
15 | CC(C)c1nn(CC(=O)N[C@@H]2CCCN(C3CC3)C2)c(=O)c2cc3ccsc3n12 [Example 4, (R)—N-(1-cyclopropylpiperidin-3-yl)-2-(8-isopropyl-5-oxothieno[3′,2′:4,5]pyrrolo[1,2-d][1,2,4]triazin-6(5H)-yl)acetamide] | 54 nM | 21.5% | 7.5% | –
16 | O=C(Cn1nc(C2CC2)n2c(cc3ccsc32)c1=O)N[C@@H]1CCCN(C2CC2)C1 [Example 21, (R)-2-(8-cyclopropyl-5-oxothieno[3′,2′:4,5]pyrrolo[1,2-d][1,2,4]triazin-6(5H)-yl)-N-(1-cyclopropylpiperidin-3-yl)acetamide] | 60 nM | 11.7% | 13.5% | –
17 | CC(C)c1nn(CC(=O)N[C@@H]2CCCN(C)C2)c(=O)c2cc3cc(Cl)sc3n12 [Example 5, (R)-2-(2-chloro-8-isopropyl-5-oxothieno[3′,2′:4,5]pyrrolo[1,2-d][1,2,4]triazin-6(5H)-yl)-N-(1-methylpiperidin-3-yl)acetamide 2,2,2-trifluoroacetate] | 1230 nM | -18.2% | -14.1% | –
18 | CC(C)CN1CCC[C@@H](NC(=O)Cn2nc(C(C)C)n3c(cc4ccsc43)c2=O)C1 [Example 14, (R)—N-(1-isobutylpiperidin-3-yl)-2-(8-isopropyl-5-oxothieno[3′,2′:4,5]pyrrolo[1,2-d][1,2,4]triazin-6(5H)-yl)acetamide] | 237 nM | -0.5% | -18.8% | –
19 | C=O.CC(C)c1nn(CC(=O)N[C@@H]2CCCN(CCO)C2)c(=O)c2cc3ccsc3n12 [Example 19, (R)—N-(1-(2-hydroxyethyl)piperidin-3-yl)-2-(8-isopropyl-5-oxothieno [3′,2′:4,5]pyrrolo[1,2-d][1,2,4]triazin-6(5H)-yl)acetamide compound with formaldehyde] | – | 27.7% | -22.7% | 225 nM
20 | CC(C)c1nn(CC(=O)N[C@@H]2CCCN(C)C2)c(=O)c2cc3cc(Br)sc3n12 [Example 8, (R)-2-(2-bromo-8-isopropyl-5-oxothieno[3′,2′:4,5]pyrrolo[1,2-d][1,2,4]triazin-6(5H)-yl)-N-(1-methylpiperidin-3-yl)acetamide] | 801 nM | -10% | -21.8% | –
21 | O=C(Cn1nc(C2CC2)n2c(cc3ccsc32)c1=O)N[C@@H]1CCCN(C2CCC2)C1 [Example 20, (R)—N-(1-cyclobutylpiperidin-3-yl)-2-(8-cyclopropyl-5-oxothieno[3′,2′:4,5]pyrrolo[1,2-d][1,2,4]triazin-6(5H)-yl)acetamide] | 185 nM | -6.1% | -26% | –
22 | CC(C)c1nn(CC(=O)N[C@@H]2CCCN(C3CCC3)C2)c(=O)c2cc3cc(Br)sc3n12 [Example 31, (R)-2-(2-bromo-8-isopropyl-5-oxothieno[3′,2′:4,5]pyrrolo[1,2-d][1,2,4]triazin-6(5H)-yl)-N-(1-cyclobutylpiperidin-3-yl)acetamide 2,2,2-trifluoroacetate] | 30 nM | 10.5% | 32.5% | –
23 | CC(C)c1nn(CC(=O)NC2CN(C)CC(F)(F)C2)c(=O)c2cc3cc(Cl)sc3n12 (stereo not drawn) [Example 34, 2-(2-chloro-8-isopropyl-5-oxothieno[3′,2′:4,5]pyrrolo[1,2-d][1,2,4]triazin-6(5H)-yl)-N-(5,5-difluoro-1-methylpiperidin-3-yl)acetamide 2,2,2-trifluoroacetate] | 6160 nM | – | – | –
